As usually defined, the Kd is the concentration at which binding is half-saturated.

The assay concerns the target Tyrosine-protein kinase Mer (Homo sapiens, UniProt Q12866). Description: Binding affinity to MERTK (unknown origin) assessed as dissociation constant by competition binding assay.

Tyrosine-protein kinase Mer, sequence (Q12866 whole entry): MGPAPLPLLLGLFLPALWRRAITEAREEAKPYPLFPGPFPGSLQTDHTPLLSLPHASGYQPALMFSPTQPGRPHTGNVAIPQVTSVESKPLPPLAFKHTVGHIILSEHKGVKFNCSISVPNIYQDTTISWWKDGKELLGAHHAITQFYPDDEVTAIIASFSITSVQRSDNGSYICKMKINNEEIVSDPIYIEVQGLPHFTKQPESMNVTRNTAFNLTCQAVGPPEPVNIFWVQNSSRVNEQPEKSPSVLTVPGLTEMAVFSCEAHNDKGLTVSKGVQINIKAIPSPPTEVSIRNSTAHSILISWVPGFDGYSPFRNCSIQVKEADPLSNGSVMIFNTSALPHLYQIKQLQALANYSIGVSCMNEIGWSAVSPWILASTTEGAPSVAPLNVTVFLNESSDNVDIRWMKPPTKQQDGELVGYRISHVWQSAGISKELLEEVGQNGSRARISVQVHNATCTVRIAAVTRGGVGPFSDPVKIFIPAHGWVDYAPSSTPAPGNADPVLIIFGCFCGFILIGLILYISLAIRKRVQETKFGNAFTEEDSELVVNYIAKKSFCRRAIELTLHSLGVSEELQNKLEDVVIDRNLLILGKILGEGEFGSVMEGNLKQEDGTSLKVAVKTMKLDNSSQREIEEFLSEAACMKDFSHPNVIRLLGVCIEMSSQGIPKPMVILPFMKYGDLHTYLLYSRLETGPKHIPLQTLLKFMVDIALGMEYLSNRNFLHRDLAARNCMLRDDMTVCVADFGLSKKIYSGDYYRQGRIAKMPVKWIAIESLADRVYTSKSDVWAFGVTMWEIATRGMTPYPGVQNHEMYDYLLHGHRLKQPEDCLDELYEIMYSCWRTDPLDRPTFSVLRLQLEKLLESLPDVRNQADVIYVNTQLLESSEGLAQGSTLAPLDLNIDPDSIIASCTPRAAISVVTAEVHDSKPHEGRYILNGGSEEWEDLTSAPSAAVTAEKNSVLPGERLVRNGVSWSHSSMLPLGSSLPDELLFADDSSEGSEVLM

Consider `COc1cc2c(Oc3ccc(Nc4nn(C)cc4C(=O)NC4CCCCC4)cc3F)ccnc2cc1OCCCN1CCOCC1`, for which the Kd was found to be 560 nM.
